Each block holds one compound with its values, some of them ahead of it.
What was measured:
Assay type in all cases: physicochemical
[1] = repose angle measured by powder tester PT-E (fluidity of anhydrous D-allose crystals); conditions: for Repose angle (degrees): anhydrous crystals of Test Nos. 1 to 12, hydrous crystals dried with evaporator (30° C., 20 hPa (abs), about 2 hours), average of three directions
Description: The fluidity of the anhydrous D-allose crystals obtained by drying the hydrous crystals obtained in each of Tests Nos. 1 to 12 with an evaporator (30° C., 20 hPa (abs), about 2 hours) as described above was evaluated by the repose angle measured by a powder tester PT-E (manufactured by Hosokawa Micron Corporation). Specifically, a sample was dropped and deposited on a disk, and the inclination angle was measured from three directions to obtain an average value. From the average value, the degree of fluidity was evaluated according to Table 1 in the Japanese Pharmacopoeia, 17th edition, Reference Information G2 physical property-related “Powder Fluidity” (same as the so-called Carr's fluidity index table, shown as Table 4).
In order to measure the water content in the crystals obtained by each of the drying methods, drying under reduced pressure under conditions at 70° C. for 18 hours was performed to calculate the water content in the crystals from the weight loss through the drying under reduced pressure. The repose angle was measured by the method described above to determine the degree of fluidity. The yield rate was calculated by the following expression. Yield rate (%)=(D/C)×100 [Expression 4]

[2] = aspect ratio of crystals from microscopic picture (Digital microscope VHX-5000, 50x)
Excerpt: The “anhydrous D-allose crystals” of the present invention have an extremely large average particle size as described above and are not in a fine needle form, having a characteristic aspect ratio of the crystal. In the present invention, the aspect ratio refers to the ratio of the long diameter to the short diameter of a crystal (short diameter: minimum length of lines passing through the center of gravity of the plane shape of a crystal, long diameter: maximum length of a crystal measured orthogonal to the short diameter). In the present specification, the aspect ratio in a numerical range from A to B (A and B: arbitrary numbers) means that all of the aspect ratios of a specified number (preferably at least 10, for example 10) of crystal particles randomly selected are within the numerical range. Example of random selection of crystal particles includes a method comprising taking a microscopic picture of crystals at 20× to 50× magnification and, from the crystals on the diagonal line drawn from the upper left to the lower right of the microscopic picture taken, selecting 10 crystals with a full body shown in order from the upper left on the diagonal line. Specifically, the aspect ratio is preferably 1.0 to 10.0, more preferably 2.0 to 8.0, still more preferably 2.0 to 7.0. Next, the aspect ratio of the anhydrous D-allose crystals of the present invention was examined. Specifically, a microscopic picture of each of the anhydrous D-allose crystals obtained in the previous Test Nos. 1 to 5, 7 to 10 and 12 were taken using “Digital microscope VHX-5000” manufactured by KEYENCE Corporation (50×magnification). Among the crystals on the diagonal line drawn from the upper left to the lower right of the microscopic picture taken, 10 crystals with a full picture shown were selected in order from the upper left and then the long diameter and the short diameter of each crystal were measured for calculation of the aspect ratio (Long diameter/Short diameter, wherein short diameter refers to minimum length of lines passing through the center of gravity of the plane shape of a crystal, and long diameter refers to maximum length of a crystal measured orthogonal to the short diameter). The minimum value of the aspect ratio was 1.1 and the maximum value was 9.6 (Table 9).

[3] = particle size distribution by laser diffraction (Mastersizer 3000, dry dispersion unit Aero S); conditions: average of 5 measurements, dispersion pressure 1.0 bar
Excerpt: The melting point (Tm) in the DSC refers to the melting start temperature of the endothermic peak obtained by DSC measurement (temperature at the extrapolated intersection of the base line and the maximum slope line of the endothermic peak), and the melting enthalpy (ΔH) refers to the area of the endothermic peak (ASTM D3418-15, Standard Test Method for Transition Temperatures and Enthalpies of Fusion and Crystallization of Polymers by Differential Scanning calorimetry). Further, in the present invention, the average particle size refers to the volume-based average particle size d[4,3], which is usually measured with a laser diffraction particle size distribution analyzer.
Next, the particle size distribution of the anhydrous D-allose crystals of the present invention was examined. Specifically, the anhydrous D-allose crystals obtained in the previous Test Nos. 1 to 5, 7 to 10 and 12, were subjected to measurement of particle size distribution under the measurement conditions shown in Table 7 using “Mastersizer 3000” and a “dry dispersion unit Aero S” manufactured by Malvern Instruments. More specifically, the measurement was repeated 5 times, and the average value of the 5 times measurements was used. No great variability was seen among the 5 times measurement values. The particle size distribution was expressed on a volume basis, and the volume-based average particle size d[4,3] and standard deviation σ were recorded. Also, the coefficient of variation CV=σ/d[4,3] was calculated in order to relatively evaluate the variation in the particle size distribution.

Structure (SMILES): O=C[C@H](O)[C@H](O)[C@H](O)[C@H](O)CO [Test No. 1, D-allose]
Repose angle (degrees) ([1]; listed as 1): 43.0 degrees
Aspect ratio (Long diameter/Short diameter) ([2]; crystal ① of 10 selected, listed as 1): 3.5
Aspect ratio (Long diameter/Short diameter) ([2]; crystal ② of 10 selected, listed as 1): 3.4
Aspect ratio (Long diameter/Short diameter) ([2]; crystal ③ of 10 selected, listed as 1): 4.1
Aspect ratio (Long diameter/Short diameter) ([2]; crystal ④ of 10 selected, listed as 1): 4.4
Aspect ratio (Long diameter/Short diameter) ([2]; crystal ⑤ of 10 selected, listed as 1): 4.5
Aspect ratio (Long diameter/Short diameter) ([2]; crystal ⑥ of 10 selected, listed as 1): 2.2
Aspect ratio (Long diameter/Short diameter) ([2]; crystal ⑦ of 10 selected, listed as 1): 4.3
Aspect ratio (Long diameter/Short diameter) ([2]; crystal ⑧ of 10 selected, listed as 1): 3.6
Aspect ratio (Long diameter/Short diameter) ([2]; crystal ⑨ of 10 selected, listed as 1): 3.5
Aspect ratio (Long diameter/Short diameter) ([2]; crystal ⑩ of 10 selected, listed as 1): 4.1
d [4, 3] (volume-based average particle size) ([3]; listed as 1): 472 μm

Structure (SMILES): O=C[C@H](O)[C@H](O)[C@H](O)[C@H](O)CO [Test No. 2, D-allose]
Repose angle (degrees) ([1]; listed as 2): 42.7 degrees
Aspect ratio (Long diameter/Short diameter) ([2]; crystal ① of 10 selected, listed as 2): 2.9
Aspect ratio (Long diameter/Short diameter) ([2]; crystal ② of 10 selected, listed as 2): 3.0
Aspect ratio (Long diameter/Short diameter) ([2]; crystal ③ of 10 selected, listed as 2): 3.5
Aspect ratio (Long diameter/Short diameter) ([2]; crystal ④ of 10 selected, listed as 2): 3.5
Aspect ratio (Long diameter/Short diameter) ([2]; crystal ⑤ of 10 selected, listed as 2): 3.0
Aspect ratio (Long diameter/Short diameter) ([2]; crystal ⑥ of 10 selected, listed as 2): 5.5
Aspect ratio (Long diameter/Short diameter) ([2]; crystal ⑦ of 10 selected, listed as 2): 2.6
Aspect ratio (Long diameter/Short diameter) ([2]; crystal ⑧ of 10 selected, listed as 2): 4.9
Aspect ratio (Long diameter/Short diameter) ([2]; crystal ⑨ of 10 selected, listed as 2): 3.0
Aspect ratio (Long diameter/Short diameter) ([2]; crystal ⑩ of 10 selected, listed as 2): 4.1
d [4, 3] (volume-based average particle size) ([3]; listed as 2): 563 μm

Structure (SMILES): O=C[C@H](O)[C@H](O)[C@H](O)[C@H](O)CO [Test No. 3, D-allose]
Repose angle (degrees) ([1]; listed as 3): 42.0 degrees
Aspect ratio (Long diameter/Short diameter) ([2]; crystal ① of 10 selected, listed as 3): 2.5
Aspect ratio (Long diameter/Short diameter) ([2]; crystal ② of 10 selected, listed as 3): 5.4
Aspect ratio (Long diameter/Short diameter) ([2]; crystal ③ of 10 selected, listed as 3): 3.9
Aspect ratio (Long diameter/Short diameter) ([2]; crystal ④ of 10 selected, listed as 3): 6.2
Aspect ratio (Long diameter/Short diameter) ([2]; crystal ⑤ of 10 selected, listed as 3): 4.5
Aspect ratio (Long diameter/Short diameter) ([2]; crystal ⑥ of 10 selected, listed as 3): 4.3
Aspect ratio (Long diameter/Short diameter) ([2]; crystal ⑦ of 10 selected, listed as 3): 3.0
Aspect ratio (Long diameter/Short diameter) ([2]; crystal ⑧ of 10 selected, listed as 3): 4.7
Aspect ratio (Long diameter/Short diameter) ([2]; crystal ⑨ of 10 selected, listed as 3): 6.1
Aspect ratio (Long diameter/Short diameter) ([2]; crystal ⑩ of 10 selected, listed as 3): 1.5
d [4, 3] (volume-based average particle size) ([3]; listed as 3): 450 μm

The next lines start with the values.

Repose angle (degrees) ([1]; listed as 4): 42.3 degrees
Aspect ratio (Long diameter/Short diameter) ([2]; crystal ① of 10 selected, listed as 4): 4.3
Aspect ratio (Long diameter/Short diameter) ([2]; crystal ② of 10 selected, listed as 4): 4.0
Aspect ratio (Long diameter/Short diameter) ([2]; crystal ③ of 10 selected, listed as 4): 4.2
Aspect ratio (Long diameter/Short diameter) ([2]; crystal ④ of 10 selected, listed as 4): 2.0
Aspect ratio (Long diameter/Short diameter) ([2]; crystal ⑤ of 10 selected, listed as 4): 6.0
Aspect ratio (Long diameter/Short diameter) ([2]; crystal ⑥ of 10 selected, listed as 4): 1.1
Aspect ratio (Long diameter/Short diameter) ([2]; crystal ⑦ of 10 selected, listed as 4): 3.9
Aspect ratio (Long diameter/Short diameter) ([2]; crystal ⑧ of 10 selected, listed as 4): 8.1
Aspect ratio (Long diameter/Short diameter) ([2]; crystal ⑨ of 10 selected, listed as 4): 3.8
Aspect ratio (Long diameter/Short diameter) ([2]; crystal ⑩ of 10 selected, listed as 4): 4.1
d [4, 3] (volume-based average particle size) ([3]; listed as 4): 588 μm
Structure (SMILES): O=C[C@H](O)[C@H](O)[C@H](O)[C@H](O)CO [Test No. 4, D-allose]

Repose angle (degrees) ([1]; listed as 5): 45.7 degrees
Aspect ratio (Long diameter/Short diameter) ([2]; crystal ① of 10 selected, listed as 5): 1.1
Aspect ratio (Long diameter/Short diameter) ([2]; crystal ② of 10 selected, listed as 5): 2.7
Aspect ratio (Long diameter/Short diameter) ([2]; crystal ③ of 10 selected, listed as 5): 3.2
Aspect ratio (Long diameter/Short diameter) ([2]; crystal ④ of 10 selected, listed as 5): 2.9
Aspect ratio (Long diameter/Short diameter) ([2]; crystal ⑤ of 10 selected, listed as 5): 4.7
Aspect ratio (Long diameter/Short diameter) ([2]; crystal ⑥ of 10 selected, listed as 5): 3.0
Aspect ratio (Long diameter/Short diameter) ([2]; crystal ⑦ of 10 selected, listed as 5): 4.9
Aspect ratio (Long diameter/Short diameter) ([2]; crystal ⑧ of 10 selected, listed as 5): 4.1
Aspect ratio (Long diameter/Short diameter) ([2]; crystal ⑨ of 10 selected, listed as 5): 1.6
Aspect ratio (Long diameter/Short diameter) ([2]; crystal ⑩ of 10 selected, listed as 5): 3.8
d [4, 3] (volume-based average particle size) ([3]; listed as 5): 498 μm
Structure (SMILES): O=C[C@H](O)[C@H](O)[C@H](O)[C@H](O)CO [Test No. 5, D-allose]

Repose angle (degrees) ([1]; listed as 7): 41.0 degrees
Degree of fluidity ([1]; anhydrous crystals of Test Nos. 1 to 12, evaluated from repose angle according to Table 4): Passable (41~45)
Aspect ratio (Long diameter/Short diameter) ([2]; crystal ① of 10 selected, listed as 7): 7.2
Aspect ratio (Long diameter/Short diameter) ([2]; crystal ② of 10 selected, listed as 7): 1.7
Aspect ratio (Long diameter/Short diameter) ([2]; crystal ③ of 10 selected, listed as 7): 5.2
Aspect ratio (Long diameter/Short diameter) ([2]; crystal ④ of 10 selected, listed as 7): 5.5
Aspect ratio (Long diameter/Short diameter) ([2]; crystal ⑤ of 10 selected, listed as 7): 2.5
Aspect ratio (Long diameter/Short diameter) ([2]; crystal ⑥ of 10 selected, listed as 7): 4.1
Aspect ratio (Long diameter/Short diameter) ([2]; crystal ⑦ of 10 selected, listed as 7): 4.3
Aspect ratio (Long diameter/Short diameter) ([2]; crystal ⑧ of 10 selected, listed as 7): 4.9
Aspect ratio (Long diameter/Short diameter) ([2]; crystal ⑨ of 10 selected, listed as 7): 3.5
Aspect ratio (Long diameter/Short diameter) ([2]; crystal ⑩ of 10 selected, listed as 7): 2.0
d [4, 3] (volume-based average particle size) ([3]; listed as 7): 549 μm
Structure (SMILES): O=C[C@H](O)[C@H](O)[C@H](O)[C@H](O)CO [Test No. 7, D-allose]

Reference: patent publication US12122802B2, “D-allose crystal and production method thereof” (MATSUTANI CHEMICAL INDUSTRY CO., LTD., priority 2019, dated 2024)
